Data published in US11401271B2, “Fused heterocyclic compound, pyrazole-ring-containing fused heterocyclic compound, agricultural composition containing thereof, and method of using the composition” (SOUTH CHINA AGRICULTURAL UNIVERSITY, priority 2017, dated 2022).

Test system: Plutella xylostella
Assay: whole plant or invertebrate
Assay type: in vivo
Settings: 500 ppm; 2nd-instar larvae, leaf immersion feeding
Outline: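 Cabbage leaf discs dipped 5 s in compound at 500 ppm (0.05% Tween-80 aqueous), air-dried, fed to about 35 2nd-instar larvae at 28° C., triplicate. Dead larvae counted after 24 h; mortality (%) corrected against Tween-80 control.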

Row | Compound | Plutella xylostella Mortality (%)
1 | COC(=O)CC1Nc2c([S+]([O-])C(F)(F)F)c(C(F)(F)F)nn2-c2c(Cl)cc(C(F)(F)F)cc21 (stereo not drawn) [d-98] | 100%
2 | O=C(CC1Nc2c([S+]([O-])C(F)(F)F)c(C(F)(F)F)nn2-c2c(Cl)cc(C(F)(F)F)cc21)C(F)(F)F (stereo not drawn) [d-103] | 100%
3 | [O-][S+](c1c(C(F)(F)F)nn2c1NC(C(F)(F)F)c1cc(C(F)(F)F)cc(Cl)c1-2)C(F)(F)F (stereo not drawn) [d-107] | 100%
4 | CNC(=O)C1Nc2c([S+]([O-])C(F)(F)F)c(C(F)(F)F)nn2-c2c(Cl)cc(C(F)(F)F)cc21 (stereo not drawn) [d-109] | 96%
5 | CC(=O)C1Nc2c([S+]([O-])C(F)(F)F)c(C(F)(F)F)nn2-c2c(Cl)cc(C(F)(F)F)cc21 (stereo not drawn) [d-112] | 96%
6 | [O-][S+](c1c(C(F)(F)F)nn2c1NC(Br)c1cc(C(F)(F)F)cc(Cl)c1-2)C(F)(F)F (stereo not drawn) [d-114] | 100%
7 | CC=CC1Nc2c([S+]([O-])C(F)(F)F)c(C(F)(F)F)nn2-c2c(Cl)cc(C(F)(F)F)cc21 (stereo not drawn) [d-119] | 89%
8 | COC(=O)C(C)C1Nc2c(OC(F)(F)F)c(C#N)nn2-c2c(Cl)cc(C(F)(F)F)cc21 (stereo not drawn) [d-122] | 91%
9 | N#Cc1nn2c(c1OC(F)(F)F)NC(C(=O)C(F)(F)F)c1cc(C(F)(F)F)cc(Cl)c1-2 (stereo not drawn) [d-127] | 96%
10 | N#CCC1Nc2c(OC(F)(F)F)c(C#N)nn2-c2c(Cl)cc(C(F)(F)F)cc21 (stereo not drawn) [d-129] | 95%

Test system: Solenopsis invicta
Assay: whole plant or invertebrate
Assay type: in vivo
Settings: 100 ppm; 24 h; water test tube poison-feeding
Outline: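 Fire ants fed compound by water test-tube poison-feeding at 100 ppm in aqueous 0.05% Tween-80/5% honey (from 10 g/L DMSO stock), kept at 25 °C. Live and dead ants counted at 24 and 72 h; mortality (%) calculated relative to live ants in the untreated control.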

Row | Compound | Solenopsis invicta Mortality (%) 24 h
11 | COC(=O)CC1Nc2c([S+]([O-])C(F)(F)F)c(C(F)(F)F)nn2-c2c(Cl)cc(C(F)(F)F)cc21 (stereo not drawn) [d-98] | 20%
12 | O=C(CC1Nc2c([S+]([O-])C(F)(F)F)c(C(F)(F)F)nn2-c2c(Cl)cc(C(F)(F)F)cc21)C(F)(F)F (stereo not drawn) [d-103] | 26%
13 | [O-][S+](c1c(C(F)(F)F)nn2c1NC(C(F)(F)F)c1cc(C(F)(F)F)cc(Cl)c1-2)C(F)(F)F (stereo not drawn) [d-107] | 24%
14 | CNC(=O)C1Nc2c([S+]([O-])C(F)(F)F)c(C(F)(F)F)nn2-c2c(Cl)cc(C(F)(F)F)cc21 (stereo not drawn) [d-109] | 28%
15 | CC(=O)C1Nc2c([S+]([O-])C(F)(F)F)c(C(F)(F)F)nn2-c2c(Cl)cc(C(F)(F)F)cc21 (stereo not drawn) [d-112] | 36%
16 | [O-][S+](c1c(C(F)(F)F)nn2c1NC(Br)c1cc(C(F)(F)F)cc(Cl)c1-2)C(F)(F)F (stereo not drawn) [d-114] | 24%
17 | CC=CC1Nc2c([S+]([O-])C(F)(F)F)c(C(F)(F)F)nn2-c2c(Cl)cc(C(F)(F)F)cc21 (stereo not drawn) [d-119] | 26%
18 | COC(=O)C(C)C1Nc2c(OC(F)(F)F)c(C#N)nn2-c2c(Cl)cc(C(F)(F)F)cc21 (stereo not drawn) [d-122] | 24%
19 | N#Cc1nn2c(c1OC(F)(F)F)NC(C(=O)C(F)(F)F)c1cc(C(F)(F)F)cc(Cl)c1-2 (stereo not drawn) [d-127] | 20%
20 | N#CCC1Nc2c(OC(F)(F)F)c(C#N)nn2-c2c(Cl)cc(C(F)(F)F)cc21 (stereo not drawn) [d-129] | 24%

Same assay, conditions: 100 ppm; 72 h; water test tube poison-feeding

Row | Compound | Solenopsis invicta Mortality (%) 72 h
21 | COC(=O)CC1Nc2c([S+]([O-])C(F)(F)F)c(C(F)(F)F)nn2-c2c(Cl)cc(C(F)(F)F)cc21 (stereo not drawn) [d-98] | 99%
22 | O=C(CC1Nc2c([S+]([O-])C(F)(F)F)c(C(F)(F)F)nn2-c2c(Cl)cc(C(F)(F)F)cc21)C(F)(F)F (stereo not drawn) [d-103] | 93%
23 | [O-][S+](c1c(C(F)(F)F)nn2c1NC(C(F)(F)F)c1cc(C(F)(F)F)cc(Cl)c1-2)C(F)(F)F (stereo not drawn) [d-107] | 100%
24 | CNC(=O)C1Nc2c([S+]([O-])C(F)(F)F)c(C(F)(F)F)nn2-c2c(Cl)cc(C(F)(F)F)cc21 (stereo not drawn) [d-109] | 85%
25 | CC(=O)C1Nc2c([S+]([O-])C(F)(F)F)c(C(F)(F)F)nn2-c2c(Cl)cc(C(F)(F)F)cc21 (stereo not drawn) [d-112] | 99%
26 | [O-][S+](c1c(C(F)(F)F)nn2c1NC(Br)c1cc(C(F)(F)F)cc(Cl)c1-2)C(F)(F)F (stereo not drawn) [d-114] | 90%
27 | CC=CC1Nc2c([S+]([O-])C(F)(F)F)c(C(F)(F)F)nn2-c2c(Cl)cc(C(F)(F)F)cc21 (stereo not drawn) [d-119] | 83%
28 | COC(=O)C(C)C1Nc2c(OC(F)(F)F)c(C#N)nn2-c2c(Cl)cc(C(F)(F)F)cc21 (stereo not drawn) [d-122] | 95%
29 | N#Cc1nn2c(c1OC(F)(F)F)NC(C(=O)C(F)(F)F)c1cc(C(F)(F)F)cc(Cl)c1-2 (stereo not drawn) [d-127] | 97%
30 | N#CCC1Nc2c(OC(F)(F)F)c(C#N)nn2-c2c(Cl)cc(C(F)(F)F)cc21 (stereo not drawn) [d-129] | 100%

Test system: Spodoptera exigua
Assay: whole plant or invertebrate
Assay type: in vivo
Settings: 500 ppm; 2nd-instar larvae, leaf immersion feeding
Outline: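 Cabbage leaf discs dipped 5 s in 500 ppm compound (0.05% Tween-80 aqueous), air-dried, fed to about 35 2nd-instar larvae at 28° C, three replicates. Deaths counted at 24 h; mortality corrected against Tween-80 control.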

Row | Compound | Spodoptera exigua Mortality (%)
31 | COC(=O)CC1Nc2c([S+]([O-])C(F)(F)F)c(C(F)(F)F)nn2-c2c(Cl)cc(C(F)(F)F)cc21 (stereo not drawn) [d-98] | 100%
32 | O=C(CC1Nc2c([S+]([O-])C(F)(F)F)c(C(F)(F)F)nn2-c2c(Cl)cc(C(F)(F)F)cc21)C(F)(F)F (stereo not drawn) [d-103] | 98%
33 | [O-][S+](c1c(C(F)(F)F)nn2c1NC(C(F)(F)F)c1cc(C(F)(F)F)cc(Cl)c1-2)C(F)(F)F (stereo not drawn) [d-107] | 100%
34 | CNC(=O)C1Nc2c([S+]([O-])C(F)(F)F)c(C(F)(F)F)nn2-c2c(Cl)cc(C(F)(F)F)cc21 (stereo not drawn) [d-109] | 85%
35 | CC(=O)C1Nc2c([S+]([O-])C(F)(F)F)c(C(F)(F)F)nn2-c2c(Cl)cc(C(F)(F)F)cc21 (stereo not drawn) [d-112] | 80%
36 | [O-][S+](c1c(C(F)(F)F)nn2c1NC(Br)c1cc(C(F)(F)F)cc(Cl)c1-2)C(F)(F)F (stereo not drawn) [d-114] | 87%
37 | CC=CC1Nc2c([S+]([O-])C(F)(F)F)c(C(F)(F)F)nn2-c2c(Cl)cc(C(F)(F)F)cc21 (stereo not drawn) [d-119] | 90%
38 | COC(=O)C(C)C1Nc2c(OC(F)(F)F)c(C#N)nn2-c2c(Cl)cc(C(F)(F)F)cc21 (stereo not drawn) [d-122] | 84%
39 | N#Cc1nn2c(c1OC(F)(F)F)NC(C(=O)C(F)(F)F)c1cc(C(F)(F)F)cc(Cl)c1-2 (stereo not drawn) [d-127] | 100%
40 | N#CCC1Nc2c(OC(F)(F)F)c(C#N)nn2-c2c(Cl)cc(C(F)(F)F)cc21 (stereo not drawn) [d-129] | 100%

Test system: Aphis craccivora
Assay: whole plant or invertebrate
Assay type: in vivo
Settings: 500 ppm; wingless adults, immersion 5 seconds, counted after 24 hours
Outline: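 Wingless adults feeding on bean sprouts were dipped with the sprouts for 5 s in 500 ppm compound in aqueous 0.05% Tween-80, air-dried, then held at 23° C. Dead aphids counted after 24 h, triplicate, with 0.05% Tween-80 as control. Mortality (%) = (control live − treated live)/control live × 100.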

Row | Compound | Aphis craccivora Mortality (%)
41 | COC(=O)CC1Nc2c([S+]([O-])C(F)(F)F)c(C(F)(F)F)nn2-c2c(Cl)cc(C(F)(F)F)cc21 (stereo not drawn) [d-98] | 100%
42 | O=C(CC1Nc2c([S+]([O-])C(F)(F)F)c(C(F)(F)F)nn2-c2c(Cl)cc(C(F)(F)F)cc21)C(F)(F)F (stereo not drawn) [d-103] | 100%
43 | [O-][S+](c1c(C(F)(F)F)nn2c1NC(C(F)(F)F)c1cc(C(F)(F)F)cc(Cl)c1-2)C(F)(F)F (stereo not drawn) [d-107] | 100%
44 | CNC(=O)C1Nc2c([S+]([O-])C(F)(F)F)c(C(F)(F)F)nn2-c2c(Cl)cc(C(F)(F)F)cc21 (stereo not drawn) [d-109] | 99%
45 | CC(=O)C1Nc2c([S+]([O-])C(F)(F)F)c(C(F)(F)F)nn2-c2c(Cl)cc(C(F)(F)F)cc21 (stereo not drawn) [d-112] | 100%
46 | [O-][S+](c1c(C(F)(F)F)nn2c1NC(Br)c1cc(C(F)(F)F)cc(Cl)c1-2)C(F)(F)F (stereo not drawn) [d-114] | 100%
47 | CC=CC1Nc2c([S+]([O-])C(F)(F)F)c(C(F)(F)F)nn2-c2c(Cl)cc(C(F)(F)F)cc21 (stereo not drawn) [d-119] | 92%
48 | COC(=O)C(C)C1Nc2c(OC(F)(F)F)c(C#N)nn2-c2c(Cl)cc(C(F)(F)F)cc21 (stereo not drawn) [d-122] | 90%
49 | N#Cc1nn2c(c1OC(F)(F)F)NC(C(=O)C(F)(F)F)c1cc(C(F)(F)F)cc(Cl)c1-2 (stereo not drawn) [d-127] | 100%
50 | N#CCC1Nc2c(OC(F)(F)F)c(C#N)nn2-c2c(Cl)cc(C(F)(F)F)cc21 (stereo not drawn) [d-129] | 100%
